This is an account of results in patent US20240425500A1 (priority 2021, published 2024).

The term inhibition denotes the percentage by which the read-out fell short of the control.

Some results are limits rather than exact numbers.

For the assay, the system named is Pythium ultimum. Description: Pythium ultimum / liquid culture (seedling damping off). Type of assay: cell-based. Conditions: Globisporangium ultimum, liquid culture in PDB, 24 °C, 2-3 days after application, read-out: control of Pythium ultimum (inhibition of growth, photometric) compared to untreated control. As to the method: Pythium ultimum/Liquid Culture (Seedling Damping Off):
Mycelia fragments and oospores of a newly grown liquid culture of the fungus are directly mixed into nutrient broth (PDB potato dextrose broth). After placing a (DMSO) solution of test compound into a microtiter plate (96-well format), the nutrient broth containing the fungal mycelia/spore mixture is added. The test plates are incubated at 24° C. and the inhibition of growth is determined photometrically 2-3 days after application.
Turning to `COC(=O)Nc1ccc(-c2cnc3ccc(C(=O)N(C)c4ccc(OC(F)F)cc4)cn23)cn1` [Compound 66, methyl N-[5-[6-[[4-(difluoromethoxy)phenyl]-methyl-carbamoyl]imidazo[1,2-a]pyridin-3-yl]-2-pyridyl]carbamate], the inhibition at 20 ppm is ≥ 80%. Take `COC(=O)Nc1ccc(-c2cnc3ccc(C(=O)N(C)c4ccncc4)cn23)cc1` [Compound 24, methyl N-[4-[6-[methyl(4-pyridyl)carbamoyl]imidazo [1,2-a]pyridin-3-yl]phenyl]carbamate]: the inhibition at 20 ppm was ≥ 80%. Take `CCOC(=O)c1cc(N(C)C(=O)c2ccc3ncc(-c4ccc(NC(=O)OC)nc4)n3c2)ccc1F` [Compound 176, ethyl 2-fluoro-5-[[3-[6-(methoxy-carbonylamino)-3-pyridyl]imidazo[1,2-a]pyridine-6-carbonyl]-methyl-amino]benzoate]: the inhibition at 20 ppm is ≥ 80%. In the case of `CCN(C(=O)c1ccc2ncc(-c3ccc(NC(=O)OC)nc3)n2c1)c1cccc(F)c1` [Compound 145, methyl N-[5-[6-[ethyl-(3-fluorophenyl)carbamoyl]imidazo[1,2-a]pyridin-3-yl]-2-pyridyl]carbamate], the inhibition at 20 ppm was ≥ 80%. Next, `COC(=O)Nc1ccc(-c2cnc3ccc(C(=O)N(C)c4cccc(C5CC5)c4)cn23)cn1` [Compound 72, methyl N-[5-[6-[(3-cyclopropylphenyl)-methyl-carbamoyl]imidazo[1,2-a]pyridin-3-yl]-2-pyridyl]carbamate]: ≥ 80%; `COC(=O)Nc1ccc(-c2cnc3ccc(C(=O)N(C)c4ccc(F)nc4)cn23)cn1` [Compound 60, methyl N-[5-[6-[(6-fluoro-3-pyridyl)-methyl-carbamoyl]imidazo[1,2-a]pyridin-3-yl]-2-pyridyl]carbamate]: ≥ 80%; `COC(=O)CN(C(=O)c1ccc2ncc(-c3ccc(NC(=O)OC)nc3)n2c1)c1ccc(F)c(OC)c1` [Compound 91, methyl 2-(4-fluoro-3-methoxy-N-[3-[6-(methoxycarbonyl-amino)-3-pyridyl]imidazo[1,2-a]pyridine-6-carbonyl]anilino)acetate]: ≥ 80%. For `CCOC(=O)c1cccc(N(CC)C(=O)c2ccc3ncc(-c4ccc(NC(=O)OC)nc4)n3c2)c1` [Compound 122, ethyl 3-[ethyl-[3-[6-(methoxycarbonyl-amino)-3-pyridyl]imidazo[1,2-a]pyridine-6-carbonyl]amino]benzoate], the inhibition at 20 ppm was ≥ 80%.

For `COC(=O)Nc1ccc(-c2cnc3ccc(C(=O)N(CCC#N)c4ccc(Cl)c(C)c4)cn23)cn1` [Compound 148, methyl N-[5-[6-[(4-chloro-3-methyl-phenyl)-(2-cyanoethyl)carbamoyl]imidazo[1,2-a]pyridin-3-yl]-2-pyridyl]carbamate], the inhibition at 20 ppm was ≥ 80%. Consider `COC(=O)Nc1ccc(-c2cnc3ccc(C(=O)N(CC(F)(F)F)c4ccc(Cl)cc4)cn23)cc1` [Compound 29, methyl N-[4-[6-[(4-chlorophenyl)-(2,2,2-trifluoroethyl)carbamoyl]imidazo [1,2-a]pyridin-3-yl]phenyl]carbamate], for which the inhibition at 20 ppm is ≥ 80%. On to `CCN(C(=O)c1ccc2ncc(-c3ccc(NC(=O)OC)nc3)n2c1)c1cccc(C#N)c1` [Compound 141, methyl N-[5-[6-[(3-cyanophenyl)-ethyl-carbamoyl]imidazo[1,2-a]pyridin-3-yl]-2-pyridyl]carbamate], for which the inhibition at 20 ppm was ≥ 80%. Next, `COC(=O)Nc1ccc(-c2cnc3cc(C#N)c(C(=O)N(C)c4ccc(Cl)cc4)cn23)cc1` [Compound 41, methyl N-[4-[6-[(4-chlorophenyl)-methyl-carbamoyl]-7-cyano-imidazo[1,2-a]pyridin-3-yl]phenyl]carbamate]: ≥ 80%. For `COC(=O)Nc1ccc(-c2cnc3ccc(C(=O)N(C)c4ccc(Cl)c(C(F)(F)F)c4)cn23)cn1` [Compound 121, methyl N-[5-[6-[[4-chloro-3-(trifluoromethyl)phenyl]-methyl-carbamoyl]imidazo[1,2-a]pyridin-3-yl]-2-pyridyl]carbamate], the inhibition at 20 ppm is ≥ 80%. Next, `CCCN(C(=O)c1ccc2ncc(-c3ccc(NC(=O)OC)cc3)n2c1)c1ccc(Cl)cc1` [Compound 30, methyl N-[4-[6-[(4-chlorophenyl)-propyl-carbamoyl]imidazo[1,2-a]pyridin-3-yl]phenyl]carbamate]: ≥ 80%; `COC(=O)Nc1ccc(-c2cnc3ccc(C(=O)N(CCC#N)c4ccc(C)cc4)cn23)cn1` [Compound 125, methyl N-[5-[6-[2-cyanoethyl(p-tolyl)carbamoyl]imidazo[1,2-a]pyridin-3-yl]-2-pyridyl]carbamate]: ≥ 80%; `COC(=O)Nc1ccc(-c2cnc3ccc(C(=O)N(C)c4ccc(Br)cc4)cn23)cn1` [Compound 68, methyl N-[5-[6-[(4-bromophenyl)-methyl-carbamoyl]imidazo[1,2-a]pyridin-3-yl]-2-pyridyl]carbamate]: ≥ 80%. `COC(=O)Nc1ccc(-c2cnc3ccc(C(=O)N(C)c4ccc(C)cc4)cn23)cc1` [Compound 16, methyl N-[4-[6-[methyl (p-tolyl)carbamoyl]imidazo [1,2-a]pyridin-3-yl]phenyl]carbamate]: the inhibition at 20 ppm was ≥ 80%. Regarding `COC(=O)Nc1ccc(-c2cnc3ccc(C(=O)N(C)c4ccnc(C)c4)cn23)cc1` [Compound 12, methyl N-[4-[6-[methyl-(2-methyl-4-pyridyl)carbamoyl]imidazo [1,2-a]pyridin-3-yl]phenyl]carbamate], the inhibition at 20 ppm was ≥ 80%.

In the case of `COC(=O)Nc1ccc(-c2cnc3ccc(C(=O)N(CC#N)c4ccccc4)cn23)cn1` [Compound 108, methyl N-[5-[6-[cyanomethyl(phenyl)carbamoyl]imidazo[1,2-a]pyridin-3-yl]-2-pyridyl] carbamate], the inhibition at 20 ppm is ≥ 80%. As to `CCC(=O)Nc1ccc(-c2cnc3ccc(C(=O)N(C)c4ccc(F)cc4)cn23)cn1` [Compound 166, N-(4-fluorophenyl)-N-methyl-3-[6-(propanoylamino)-3-pyridyl]imidazo[1,2-a]pyridine-6-carboxamide], the inhibition at 20 ppm is ≥ 80%. `COC(=O)Nc1ccc(-c2cnc3ccc(C(=O)N(CCO)c4ccccc4)cn23)cn1` [Compound 112, methyl N-[5-[6-[2-hydroxyethyl(phenyl)carbamoyl]imidazo [1,2-a]pyridin-3-yl]-2-pyridyl]carbamate]: the inhibition at 20 ppm is ≥ 80%. As for `COC(=O)Nc1ccc(-c2cnc3ccc(C(=O)N(C)c4cc(C)cc(OC)c4)cn23)cn1` [Compound 59, methyl N-[5-[6-[(3-methoxy-5-methyl-phenyl)-methyl-carbamoyl]imidazo[1,2-a]pyridin-3-yl]-2-pyridyl]carbamate], the inhibition at 20 ppm was ≥ 80%. As to `COC(=O)Nc1ccc(-c2cnc3cc(OC)c(C(=O)N(C)c4ccc(Cl)cc4)cn23)cc1` [Compound 39, methyl N-[4-[6-[(4-chlorophenyl)-methyl-carbamoyl]-7-methoxy-imidazo[1,2-a]pyridin-3-yl]phenyl]carbamate], the inhibition at 20 ppm was ≥ 80%.

For the compound `COC(=O)Nc1ccc(-c2cnc3cc(F)c(C(=O)N(C)c4ccc(Cl)cc4)cn23)cc1` [Compound 42, methyl N-[4-[6-[(4-chlorophenyl)-methyl-carbamoyl]-7-fluoro-imidazo[1,2-a]pyridin-3-yl]phenyl]carbamate], the inhibition at 20 ppm was ≥ 80%. For the compound `CCN(C(=O)c1ccc2ncc(-c3ccc(NC(=O)OC)nc3)n2c1)c1ccc(C)c(F)c1` [Compound 127, methyl N-[5-[6-[ethyl-(3-fluoro-4-methyl-phenyl)carbamoyl]imidazo [1,2-a]pyridin-3-yl]-2-pyridyl]carbamate], the inhibition at 20 ppm is ≥ 80%.

On to `COC(=O)Nc1ccc(-c2cnc3ccc(C(=O)N(C)c4ccc(C)c(C)c4)cn23)cn1` [Compound 65, methyl N-[5-[6-[(3,4-dimethylphenyl)-methyl-carbamoyl]imidazo[1,2-a]pyridin-3-yl]-2-pyridyl]carbamate], for which the inhibition at 20 ppm is ≥ 80%. In the case of `CCOC(=O)CN(C(=O)c1ccc2ncc(-c3ccc(NC(=O)OC)nc3)n2c1)c1ccc(F)cc1` [Compound 150, ethyl 2-(4-fluoro-N-[3-[6-(methoxy-carbonylamino)-3-pyridyl]imidazo[1,2-a]pyridine-6-carbonyl]anilino)acetate], the inhibition at 20 ppm is ≥ 80%. The figure for `CN(C(=O)c1ccc2ncc(-c3ccc(NC(=O)C4CC4)nc3)n2c1)c1ccc(F)cc1` [Compound 165, 3-[6-(cyclo-propanecarbonylamino)-3-pyridyl]-N-(4-fluorophenyl)-N-methyl-imidazo[1,2-a]pyridine-6-carboxamide] is ≥ 80%; for `COC(=O)Nc1ccc(-c2cnc3cc(C)c(C(=O)N(C)c4ccc(Cl)cc4)cn23)cc1` [Compound 18, methyl N-[4-[6-[(4-chlorophenyl)-methyl-carbamoyl]-7-methyl-imidazo[1,2-a]pyridin-3-yl]phenyl]carbamate] it is ≥ 80%.

For the compound `COC(=O)Nc1ccc(-c2cnc3ccc(C(=O)N(CC#N)c4ccc(C)cc4)cn23)cn1` [Compound 143, methyl N-[5-[6-[cyanomethyl(p-tolyl)carbamoyl]imidazo [1,2-a]pyridin-3-yl]-2-pyridyl]carbamate], the inhibition at 20 ppm was ≥ 80%.

In the case of `COC(=O)Nc1ccc(-c2cnc3ccc(C(=O)N(CC4CC4)c4ccc(Cl)cc4)cn23)cc1` [Compound 28, methyl N-[4-[6-[(4-chlorophenyl)-(cyclopropylmethyl)carbamoyl]imidazo[1,2-a]pyridin-3-yl]phenyl]carbamate], the inhibition at 20 ppm is ≥ 80%.

In the case of `COC(=O)Nc1ccc(-c2cnc3ccc(C(=O)N(C)c4cccc(C)c4)cn23)cn1` [Compound 54, methyl N-[5-[6-[methyl(m-tolyl)carbamoyl]imidazo [1,2-a]pyridin-3-yl]-2-pyridyl]carbamate], the inhibition at 20 ppm is ≥ 80%.
